What was measured:
K-Ras WT = biological target: T1, K-Ras WT (Homo sapiens, UniProt P01116); assay: HTRF resonance energy transfer assay, K-Ras WT / SOS1 interaction; assay type: biochemical; conditions: HTRF assay of Example 5; read-out: IC50 against K-Ras WT
T1 construct: made in house; host or cells: E. coli BL21 (DE3)
How it was run: (§1)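 GST-tagged K-Ras (WT or mutant) bound to anti-GST-Eu donor was mixed with His-hSOS1 bound to anti-6His-XL665 acceptor in ~5 mM HEPES pH 7.4, 150 mM NaCl, 1 mM DTT, 0.05% BSA, 0.0025% Igepal. HTRF (ex 337, em 620/665 nm) was read after ~10 min or longer. IC50 came from the 665/620 ratio over duplicates from 10 μM to 0.01 μM.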

K-Ras G12V = biological target: T2, K-Ras G12V (Homo sapiens, UniProt P01116, G12V); assay: HTRF resonance energy transfer assay, K-Ras G12V / SOS1 interaction; assay type: biochemical; conditions: HTRF assay of Example 5; read-out: IC50 against K-Ras G12V
T2 construct: made in house; host or cells: E. coli BL21 (DE3)
T2 sequence (P01116 1-188 isoform P01116-2 G12V): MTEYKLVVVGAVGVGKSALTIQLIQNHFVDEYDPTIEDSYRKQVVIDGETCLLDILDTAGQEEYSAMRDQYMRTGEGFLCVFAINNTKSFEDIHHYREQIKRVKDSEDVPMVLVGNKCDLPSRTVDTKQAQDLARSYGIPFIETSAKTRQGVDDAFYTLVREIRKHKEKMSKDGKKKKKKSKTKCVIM
How it was run: as §1

K-Ras G12D = biological target: T3, K-Ras G12D (Homo sapiens, UniProt P01116, G12D); assay: HTRF resonance energy transfer assay, K-Ras G12D / SOS1 interaction; assay type: biochemical; conditions: HTRF assay of Example 5; read-out: IC50 against K-Ras G12D
T3 construct: made in house; host or cells: E. coli BL21 (DE3)
T3 sequence (P01116 1-188 isoform P01116-2 G12D): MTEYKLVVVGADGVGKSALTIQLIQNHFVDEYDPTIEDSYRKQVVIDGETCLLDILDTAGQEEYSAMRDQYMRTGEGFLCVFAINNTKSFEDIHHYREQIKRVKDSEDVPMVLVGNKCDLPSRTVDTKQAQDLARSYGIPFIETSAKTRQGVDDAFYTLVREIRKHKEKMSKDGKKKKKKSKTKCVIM
How it was run: as §1

SW620 cells = assay: Ras cellular assay, growth of cells with K-Ras G12V mutation (CellTiter-Glo); assay type: cell-based; conditions: Homo sapiens, SW-620; cell growth, Example 9, G12V mutation; read-out: IC50 against SW620 cells
Experimental: For example, this assay can be also used to assess a selective growth inhibition of a mutant Ras protein relative to a wildtype, or relative to a different mutant Ras protein.
SW620 (ATCC CCL-227) and Capan-1 (ATCC HTB-79) cell lines comprise a G12V mutation and can be used to assess Ras cellular signaling in vitro, e.g., in response to the compounds herein. SW620 culture medium is prepared with RPMI-1640 and 10% heat-inactivated FBS. Capan-1 culture medium is prepared with RPMI-1640 and 10% heat-inactivated FBS. A CellTiter-Glo (CTG) luminescent based assay (Promega) is used to assess growth of the cells, as a measurement of the ability of the compounds herein to inhibit Ras signaling in the cells. The cells (e.g., 800 per well) are seeded in their respective culture medium in standard tissue culture-treated 384-well format plates (Falcon #08-772-116) or ultra-low attachment surface 384-well format plates (S-Bio #MS-9384WZ). The day after plating, cells are treated with a dilution series (e.g., a 10 point 3-fold dilution series) of the compounds herein (e.g., approximately 40 μL final volume per well). Cell viability can be monitored (e.g., approximately 6 days later) according to the manufacturer's recommended instructions, where the CellTiter-Glo reagent is added (e.g., approximately 10 μL), vigorously mixed, covered, and placed on a plate shaker (e.g., approximately for 20 min) to ensure sufficient cell lysis prior to assessment of luminescent signal. The IC50 values are determined using the four parameter fit. The resulting IC50 value is a measurement of the ability of the compounds herein to reduce cell growth of Ras-driven cells (e.g., tumor cell lines) in vitro and/or in vivo.

K-Ras G12S = biological target: T4, K-Ras G12S (Homo sapiens, UniProt P01116, G12S); assay: HTRF resonance energy transfer assay, K-Ras G12S / SOS1 interaction; assay type: biochemical; conditions: HTRF assay of Example 5; read-out: IC50 against K-Ras G12S
T4 construct: made in house; host or cells: E. coli BL21 (DE3)
T4 sequence (P01116 1-188 isoform P01116-2 G12S): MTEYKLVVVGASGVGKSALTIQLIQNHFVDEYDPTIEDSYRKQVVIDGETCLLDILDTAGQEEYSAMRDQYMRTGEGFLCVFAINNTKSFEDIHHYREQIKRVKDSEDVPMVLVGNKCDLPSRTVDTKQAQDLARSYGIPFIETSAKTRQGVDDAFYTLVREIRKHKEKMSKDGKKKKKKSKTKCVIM
How it was run: as §1

T1 sequence (P01116 1-188 isoform P01116-2): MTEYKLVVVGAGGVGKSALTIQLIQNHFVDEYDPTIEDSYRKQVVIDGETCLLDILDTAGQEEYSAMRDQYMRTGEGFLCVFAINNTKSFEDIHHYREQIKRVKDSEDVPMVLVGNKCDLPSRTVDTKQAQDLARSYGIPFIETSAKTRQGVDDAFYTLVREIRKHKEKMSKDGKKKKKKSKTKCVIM

Structure (SMILES)	IC50 (K-Ras WT) [nM]	IC50 (K-Ras G12V) [nM]	IC50 (K-Ras G12D) [nM]	IC50 (SW620 cells) [nM]	IC50 (K-Ras G12S) [nM]
CC(O)C1COc2c(Cl)c(-c3ccc(F)c4sc(N)c(C#N)c34)c(F)c3nc(OC[C@@]45CCCN4C[C@H](F)C5)nc(c23)N1CC1CCNC1 (stereo partly drawn) [Compound 632, 2-amino-4-(8-chloro-10-fluoro-2-(((2R,7aS)-2-fluorotetrahydro-1H-pyrrolizin-7a(5H)-yl)methoxy)-5-(1-hydroxyethyl)-4-(pyrrolidin-3-ylmethyl)-5,6-dihydro-4H-[1,4]oxazepino[5,6,7-de]quinazolin-9-yl)-7-fluorobenzo[b]thiophene-3-carbonitrile]	< 100	< 100	< 100	< 5000	< 100
CC(O)C1COc2c(Cl)c(-c3ccc(F)c4sc(N)c(C#N)c34)c(F)c3nc(OC[C@@]45CCCN4C[C@H](F)C5)nc(c23)N1CC1CCCNC1 (stereo partly drawn) [Compound 764, 2-amino-4-(8-chloro-10-fluoro-2-(((2R,7aS)-2-fluorotetrahydro-1H-pyrrolizin-7a(5H)-yl)methoxy)-5-(1-hydroxyethyl)-4-(piperidin-3-ylmethyl)-5,6-dihydro-4H-[1,4]oxazepino[5,6,7-de]quinazolin-9-yl)-7-fluorobenzo[b]thiophene-3-carbonitrile]	< 100	< 100	< 100	< 5000	< 100
CN(CCCN1c2nc(OC[C@@]34CCCN3C[C@H](F)C4)nc3c(F)c(-c4ccc(F)c5sc(N)c(C#N)c45)c(Cl)c(c23)OCC1CC#N)C(=O)[C@H]1CN1 (stereo partly drawn) [Compound 709, (2R)—N-(3-(9-(2-amino-3-cyano-7-fluorobenzo[b]thiophen-4-yl)-8-chloro-5-(cyanomethyl)-10-fluoro-2-(((2R,7aS)-2-fluorotetrahydro-1H-pyrrolizin-7a(5H)-yl)methoxy)-5,6-dihydro-4H-[1,4]oxazepino[5,6,7-de]quinazolin-4-yl)propyl)-N-methylaziridine-2-carboxamide]	< 100	< 100	< 100	< 5000	< 100
CN1c2nc(OC[C@@]34CCCN3C[C@H](F)C4)nc3c(F)c(-c4ccc(F)c5sc(N)c(C#N)c45)c(Cl)c(c23)OCC[C@H]1C1CC1 [Compound 1209, 2-amino-4-((5S)-9-chloro-5-cyclopropyl-11-fluoro-2-(((2R,7aS)-2-fluorotetrahydro-1H-pyrrolizin-7a(5H)-yl)methoxy)-4-methyl-4,5,6,7-tetrahydro-[1,5]oxazocino[4,3,2-de]quinazolin-10-yl)-7-fluorobenzo[b]thiophene-3-carbonitrile]	< 100	< 100	< 100	< 5000	< 100
N#Cc1c(N)sc2c(F)ccc(-c3c(Cl)c4c5c(nc(OC[C@@]67CCCN6C[C@H](F)C7)nc5c3F)N(C3CCCC3O)CCO4)c12 (stereo partly drawn) [Compound 808, 2-amino-4-(8-chloro-10-fluoro-2-(((2R,7aS)-2-fluorotetrahydro-1H-pyrrolizin-7a(5H)-yl)methoxy)-4-(2-hydroxycyclopentyl)-5,6-dihydro-4H-[1,4]oxazepino[5,6,7-de]quinazolin-9-yl)-7-fluorobenzo[b]thiophene-3-carbonitrile]	< 100	< 100	< 100	< 5000	< 100
CN(C)C1CCC(N2CCOc3c(Cl)c(-c4ccc(F)c5sc(N)c(C#N)c45)c(F)c4nc(OC[C@@]56CCCN5C[C@H](F)C6)nc2c34)C1 (stereo partly drawn) [Compound 677, 2-amino-4-(8-chloro-4-(3-(dimethylamino)cyclopentyl)-10-fluoro-2-(((2R,7aS)-2-fluorotetrahydro-1H-pyrrolizin-7a(5H)-yl)methoxy)-5,6-dihydro-4H-[1,4]oxazepino[5,6,7-de]quinazolin-9-yl)-7-fluorobenzo[b]thiophene-3-carbonitrile]	< 100	< 100	< 100	< 5000	< 100
C[C@H]1CN(CC2(N(C)C)CCC2)c2nc(OC[C@@]34CCCN3C[C@H](F)C4)nc3c(F)c(-c4ccc(F)c5sc(N)c(C#N)c45)c(Cl)c(c23)O1 [Compound 978, 2-amino-4-((6S)-8-chloro-4-((1-(dimethylamino)cyclobutyl)methyl)-10-fluoro-2-(((2R,7aS)-2-fluorotetrahydro-1H-pyrrolizin-7a(5H)-yl)methoxy)-6-methyl-5,6-dihydro-4H-[1,4]oxazepino[5,6,7-de]quinazolin-9-yl)-7-fluorobenzo[b]thiophene-3-carbonitrile]	–	< 100	–	< 5000	< 100

Continued, values first:

IC50 (K-Ras WT) [nM]	IC50 (K-Ras G12V) [nM]	IC50 (K-Ras G12D) [nM]	IC50 (SW620 cells) [nM]	IC50 (K-Ras G12S) [nM]	Structure (SMILES)
< 100	< 100	< 100	< 5000	< 100	CN1c2nc(OC[C@@]34CCCN3C[C@H](F)C4)nc3c(F)c(-c4ccc(F)c5sc(N)c(C#N)c45)c(Cl)c(c23)OCCC1CO (stereo partly drawn) [Compound 1217, 2-amino-4-(9-chloro-11-fluoro-2-(((2R,7aS)-2-fluorotetrahydro-1H-pyrrolizin-7a(5H)-yl)methoxy)-5-(hydroxymethyl)-4-methyl-4,5,6,7-tetrahydro-[1,5]oxazocino[4,3,2-de]quinazolin-10-yl)-7-fluorobenzo[b]thiophene-3-carbonitrile]
< 100	< 100	< 100	< 5000	–	N#Cc1c(N)sc2c(F)ccc(-c3c(Cl)c4c5c(nc(OC[C@@]67CCCN6C[C@H](F)C7)nc5c3F)N(CC(F)F)C(CC3CC3C#N)CO4)c12 (single isomer, unassigned) [Compound 674]
–	< 100	< 100	< 5000	–	N#Cc1c(N)sc2c(F)ccc(-c3c(Cl)c4c5c(nc(OC[C@@]67CCCN6C[C@H](F)C7)nc5c3F)N(CC(F)F)C(C3CCCN3)CO4)c12 (stereo partly drawn) [Compound 784, 2-amino-4-(8-chloro-4-(2,2-difluoroethyl)-10-fluoro-2-(((2R,7aS)-2-fluorotetrahydro-1H-pyrrolizin-7a(5H)-yl)methoxy)-5-(pyrrolidin-2-yl)-5,6-dihydro-4H-[1,4]oxazepino[5,6,7-de]quinazolin-9-yl)-7-fluorobenzo[b]thiophene-3-carbonitrile]
–	–	–	< 5000	–	N#Cc1c(N)sc2c(F)ccc(-c3c(Cl)c4c5c(nc(OC[C@@]67CCCN6C[C@H](F)C7)nc5c3F)N(CC(F)F)[C@@H](C3(O)CC3)CO4)c12 [Compound 1001, 2-amino-4-((R)-8-chloro-4-(2,2-difluoroethyl)-10-fluoro-2-(((2R,7aS)-2-fluorotetrahydro-1H-pyrrolizin-7a(5H)-yl)methoxy)-5-(1-hydroxycyclopropyl)-5,6-dihydro-4H-[1,4]oxazepino[5,6,7-de]quinazolin-9-yl)-7-fluorobenzo[b]thiophene-3-carbonitrile]
–	< 100	–	< 5000	–	CS(=O)(=O)NCC1COc2c(Cl)c(-c3ccc(F)c4sc(N)c(C#N)c34)c(F)c3nc(OC[C@@]45CCCN4C[C@H](F)C5)nc(c23)N1CC(F)F (stereo partly drawn) [Compound 847, N-((9-(2-amino-3-cyano-7-fluorobenzo[b]thiophen-4-yl)-8-chloro-4-(2,2-difluoroethyl)-10-fluoro-2-(((2R,7aS)-2-fluorotetrahydro-1H-pyrrolizin-7a(5H)-yl)methoxy)-5,6-dihydro-4H-[1,4]oxazepino[5,6,7-de]quinazolin-5-yl)methyl)methanesulfonamide]
–	–	–	< 5000	–	N#Cc1c(N)sc2c(F)ccc(-c3c(Cl)c4c5c(nc(OC[C@@]67CCCN6C[C@H](F)C7)nc5c3F)N(C3CCOC3)[C@@H](C(F)F)CO4)c12 (stereo partly drawn) [Compound 747, 2-amino-4-((5R)-8-chloro-5-(difluoromethyl)-10-fluoro-2-(((2R,7aS)-2-fluorotetrahydro-1H-pyrrolizin-7a(5H)-yl)methoxy)-4-(tetrahydrofuran-3-yl)-5,6-dihydro-4H-[1,4]oxazepino[5,6,7-de]quinazolin-9-yl)-7-fluorobenzo[b]thiophene-3-carbonitrile]

Reference: US12209102B2, “Heterocyclic compounds and uses thereof” (Kumquat Biosciences Inc., priority 2022, dated 2025)
